For five molecules, IC50 results are on record in ChEMBL document CHEMBL1137454, “Natural bromophenols from the marine red alga Polysiphonia urceolata (Rhodomelaceae): structural elucidation and DPPH radical-scavenging activity” (Bioorg Med Chem, 2007).

This assay is described as follows: DPPH radical scavenging activity relative to control. It counts as functional. On the technique in general: DPPH is a stable violet radical that fades when it is reduced.

In general, IC50 refers to the concentration that inhibits the measured activity by half. Consider `CC(=O)/C=C/c1cc(O)c(O)c(Br)c1`, for which it took 9.67 µM to reach half-maximal inhibition (IC50).

Turning to `CCCCOC(=O)Cc1cc(Br)c(O)c(Br)c1`, the 50% inhibitory concentration (IC50) worked out at 16.1 µM. For the molecule `O=C(O)C(Cc1cc(O)c(O)c(Br)c1)c1cc(Br)c(O)c(Br)c1` (stereo not given), it took 21.9 µM to reach half-maximal inhibition (IC50). With `Oc1cc(CCc2cc(O)c(O)c(Br)c2)cc(Br)c1O` the figure was 19.6 µM; with `Cc1cc(C(C)(C)C)c(O)c(C(C)(C)C)c1` [BUTYLATED HYDROXYTOLUENE], 83.8 µM.
